Experimental data: the NIST ThermoML archive (doi:10.1021/acs.jced.5b01023)

Experiment: xn = mol fraction of the nth substance listed
Conditions: for viscosity / mass density: 101 kPa, Liquid; for viscosity: Capillary tube (Ostwald / Ubbelohde) method; for mass density: Vibrating tube method; for surface tension liquid-gas: Wilhelmy plates

CC(=O)[O-].CCn1cc[n+](C)c1 [1-ethyl-3-methylimidazolium acetate] + CCCO
Conditions	mass density [kg/m3]	surface tension liquid-gas [mN/m]	viscosity [mPa·s]
318.15 K, x1 = 0.1017	847.19	–	–
318.15 K, x1 = 0.2004	894.27	–	–
318.15 K, x1 = 0.3001	933.29	–	–
318.15 K, x1 = 0.3998	966.03	–	–
318.15 K, x1 = 0.4997	993.92	–	–
318.15 K, x1 = 0.5996	1017.9	–	17.58
318.15 K, x1 = 0.6998	1038.68	–	23.68
318.15 K, x1 = 0.8002	1056.89	–	30.86
318.15 K, x1 = 0.8991	1072.62	–	37.98
318.15 K, x1 = 1	1086.86	–	47.37
328.15 K, x1 = 0.1017	839.68	23	2.018
328.15 K, x1 = 0.2004	887.21	25	3.268
328.15 K, x1 = 0.3001	926.51	27.9	4.878
328.15 K, x1 = 0.3998	959.44	30	7.05
328.15 K, x1 = 0.4997	987.48	31.7	9.766
328.15 K, x1 = 0.5996	1011.58	33.1	13.01
328.15 K, x1 = 0.6998	1032.45	35.8	17.05
328.15 K, x1 = 0.8002	1050.74	38.1	21.36
328.15 K, x1 = 0.8991	1066.53	41.4	25.84
328.15 K, x1 = 1	1080.82	45.9	31.29
338.15 K, x1 = 0.1017	832.08	22.3	1.68
338.15 K, x1 = 0.2004	880.13	24	2.686
338.15 K, x1 = 0.3001	919.75	27.3	3.946
338.15 K, x1 = 0.3998	952.89	29.5	5.672
338.15 K, x1 = 0.4997	981.08	31.3	7.675
338.15 K, x1 = 0.5996	1005.3	32.6	9.978
338.15 K, x1 = 0.6998	1026.26	35.5	12.68
338.15 K, x1 = 0.8002	1044.63	37.9	15.57
338.15 K, x1 = 0.8991	1060.48	41.2	18.49
338.15 K, x1 = 1	1074.83	45.4	21.85
348.15 K, x1 = 0.1017	824.34	21.5	1.413
348.15 K, x1 = 0.2004	873.02	23.6	2.26
348.15 K, x1 = 0.3001	912.99	27.1	3.292
348.15 K, x1 = 0.3998	946.36	29.3	4.651
348.15 K, x1 = 0.4997	974.71	30.8	6.175
348.15 K, x1 = 0.5996	999.06	31.8	7.866
348.15 K, x1 = 0.6998	1020.12	34.5	9.81
348.15 K, x1 = 0.8002	1038.57	37.6	11.81
348.15 K, x1 = 0.8991	1054.49	41	13.78
348.15 K, x1 = 1	1068.88	45.1	16.01
